From patent US20070116782A1, “USE OF RARE EARTH COMPOUNDS FOR THE PREVENTION OF KIDNEY STONE DISEASE” (SHIRE INT[…] B.V., priority 2001, published 2007)
Where two headings read alike, the source gives them in different places.

Tests used:
[1] = Experimental: (§1) In order to assess removal of oxalate from a stock solution by lanthanum carbonate, an oxalate binding assay was developed. […] Further, the buffer conditions were designed to mimic the conditions present in the stomach and in the small intestine. Briefly, 50 mL of a stock sodium oxalate solution containing 8.5 g/L sodium chloride was adjusted to the desired pH using 5N HCl and the Mettler-Toledo DL58 autotitrator. Various combinations of oxalate and lanthanum carbonate concentrations were tested to determine which would maximize oxalate removal. Prior to the addition of the desired amount of lanthanum carbonate, a 2 mL sample was taken to act as a zero time point sample. The volume of buffer was made up to 50 mL again by adding 2 mL of stock oxalate buffer back to the pH adjusted buffer and the lanthanum carbonate was added. […] In addition, samples were assayed at 590 nm in a Falcon 96-well microplate using the Molecular Devices Spectramax 190 plate reader.
In order to maximize the accuracy of the results, the filtered samples were assayed at a 1/20 dilution.
The procedure described above was repeated at various pH's in the range of 3-7.

[2] = 0.1 M compound, 0.01 M oxalate, 0.1 M phosphate (10-fold excess)
Experimental: In addition, samples were assayed at 590 nm in a Falcon 96-well microplate using the Molecular Devices Spectramax 190 plate reader.

[3] = Oxalate binding assay of Example 1 with pH maintained with 1N NaOH (chlorides, acetates); conditions: pH 7, pH maintained with 1N NaOH
Experimental: as §1

[4] = 0.1 M compound; 0.1 M phosphate, 0.01 M oxalate; pH 3 gradually increased to pH 7
[5] = pH 7, 0.1 M compound, 0.01 M sodium oxalate, 8.5 g/L sodium chloride

## O=C([O-])[O-].O=C([O-])[O-].O=C([O-])[O-].[Ce+3].[Ce+3] [cerium carbonate]
[1]; pH 3 (compared with pH 7), 0.1 M compound
  oxalate binding: less effective
[1]; pH 7, 0.1 M compound
  oxalate binding compared with 0.1 M lanthanum carbonate: as effective as 0.1 M lanthanum carbonate

## O.O.O.O.O.O=C([O-])[O-].O=C([O-])[O-].O=C([O-])[O-].[La+3].[La+3] [lanthanum carbonate pentahydrate]
[1]; [5]
  oxalate binding: can effectively bind oxalate
[2]; pH 3.0
  competitive binding of oxalate vs phosphate: Preferential binding of phosphate
[2]; pH 7.0
  competitive binding of oxalate vs phosphate: preferentially bind oxalate over phosphate

## O.O.O.O.O=C([O-])[O-].O=C([O-])[O-].O=C([O-])[O-].[La+3].[La+3] [lanthanum carbonate tetrahydrate]
[1]; [5]
  oxalate binding: can effectively bind oxalate
[1]; pH range 3-7
  oxalate binding at various pH: can bind oxalate in this pH range (3-7) with preferential binding at pH 6-7

## [Cl][La]([Cl])[Cl] [lanthanum chloride]
[3]
  oxalate binding: binds oxalate quite rapidly

## O=C([O-])[O-].O=C([O-])[O-].O=C([O-])[O-].[La+3].[La+3] [lanthanum carbonate]
[4]
  oxalate binding in the presence of excess phosphate during pH transition: can successfully bind oxalate
